Measurements as given in patent US20210045385A1, “PYRIDAZINONE-SUBSTITUTED KETOXIMES AS HERBICIDES” (FMC Corporation, priority 2018, published 2021).

How the values were obtained:
Assay type in all cases: in vivo
[1] = tested on: sedge, umbrella (small-flower umbrella sedge, Cyperus difformis); assay: Test B flooded paddy test, visual plant response rating; conditions: 250 g ai/ha, Flood, applied to paddy water, 2-leaf stage, evaluated after 13 to 15 days
Summary of the method: (§1)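 Visual scores compare treated plants with controls after 13 to 15 days of greenhouse growth. Treatment was made into paddy water standing 3 cm above the soil, with plants at the 2-leaf stage and flooding maintained throughout.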

[2] = tested on: ducksalad (Heteranhera limosa); assay: as above; conditions: 250 g ai/ha, Flood, applied to paddy water, 2-leaf stage, evaluated after 13 to 15 days
Summary of the method: as §1

rice (Oryza sativa) = assay: as above; conditions: 250 g ai/ha, Flood, applied to paddy water, 2-leaf stage, evaluated after 13 to 15 days
Summary of the method: as §1

[3] = tested on: barnyardgrass (Echinochloa crus-galli); assay: as above; conditions: 250 g ai/ha, Flood, applied to paddy water, 2-leaf stage, evaluated after 13 to 15 days
Summary of the method: as §1

[4] = tested on: Italian ryegrass (Lolium multiflorum); assay: Test A postemergence, visual plant response rating; conditions: for Ryegrass, Italian plant response rating (0 to 100 scale): 500 g ai/ha, postemergence, 0 is no effect, 100 is complete control; for Ryegrass, Italian plant response rating: Postemergence, 125 g ai/ha, 0 to 100 scale (0 no effect, 100 complete control)
Summary of the method: (§2)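 Ratings 0–100 (100 = complete control), visual, vs untreated controls at ~10 days. Application pre- or postemergence; solvent mixture with surfactant; loam/sand medium.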

[5] = tested on: ragweed (common ragweed, Ambrosia elatior); assay: Test A postemergence, visual plant response rating; conditions: for Ragweed plant response rating (0 to 100 scale): 500 g ai/ha, postemergence, 0 is no effect, 100 is complete control; for Ragweed plant response rating: Postemergence, 125 g ai/ha, 0 to 100 scale (0 no effect, 100 complete control)
Summary of the method: as §2

kochia (Kochia scoparia) [6] = assay: Test A postemergence, visual plant response rating; conditions: for Kochia plant response rating (0 to 100 scale): 500 g ai/ha, postemergence, 0 is no effect, 100 is complete control; for Kochia plant response rating: Postemergence, 125 g ai/ha, 0 to 100 scale (0 no effect, 100 complete control)
Summary of the method: as §2

[7] = tested on: galium (catchweed bedstraw, Galium aparine); assay: Test A postemergence, visual plant response rating; conditions: for Galium plant response rating (0 to 100 scale): 500 g ai/ha, postemergence, 0 is no effect, 100 is complete control; for Galium plant response rating: Postemergence, 125 g ai/ha, 0 to 100 scale (0 no effect, 100 complete control)
Summary of the method: as §2

[8] = tested on: pigweed (Amaranthus retroflexus); assay: Test A postemergence, visual plant response rating; conditions: for Pigweed plant response rating (0 to 100 scale): 500 g ai/ha, postemergence, 0 is no effect, 100 is complete control; for Pigweed plant response rating: Postemergence, 125 g ai/ha, 0 to 100 scale (0 no effect, 100 complete control)
Summary of the method: as §2

[9] = tested on: wheat (Triticum aestivum); assay: Test A postemergence, visual plant response rating; conditions: for Wheat plant response rating (0 to 100 scale): 500 g ai/ha, postemergence, 0 is no effect, 100 is complete control; for Wheat plant response rating: Postemergence, 125 g ai/ha, 0 to 100 scale (0 no effect, 100 complete control)
Summary of the method: as §2

[10] = tested on: foxtail, giant (giant foxtail, Setaria faberii); assay: Test A postemergence, visual plant response rating; conditions: for Foxtail, Giant plant response rating (0 to 100 scale): 500 g ai/ha, postemergence, 0 is no effect, 100 is complete control; for Foxtail, Giant plant response rating: Postemergence, 125 g ai/ha, 0 to 100 scale (0 no effect, 100 complete control)
Summary of the method: as §2

[11] = tested on: barnyardgrass (Echinochloa crus-galli); assay: Test A postemergence, visual plant response rating; conditions: for Barnyardgrass plant response rating (0 to 100 scale): 500 g ai/ha, postemergence, 0 is no effect, 100 is complete control; for Barnyardgrass plant response rating: Postemergence, 125 g ai/ha, 0 to 100 scale (0 no effect, 100 complete control)
Summary of the method: as §2

corn (Zea mays) = assay: Test A postemergence, visual plant response rating; conditions: for Corn plant response rating (0 to 100 scale): 500 g ai/ha, postemergence, 0 is no effect, 100 is complete control; for Corn plant response rating: Postemergence, 125 g ai/ha, 0 to 100 scale (0 no effect, 100 complete control)
Summary of the method: as §2

[12] = tested on: blackgrass (Alopecurus myosuroides); assay: Test A postemergence, visual plant response rating; conditions: for Blackgrass plant response rating (0 to 100 scale): 500 g ai/ha, postemergence, 0 is no effect, 100 is complete control; for Blackgrass plant response rating: Postemergence, 125 g ai/ha, 0 to 100 scale (0 no effect, 100 complete control)
Summary of the method: as §2

[13] = tested on: Italian ryegrass (Lolium multiflorum); assay: Test A preemergence, visual plant response rating; conditions: for Ryegrass, Italian plant response rating: 125 g ai/ha, preemergence, 0 to 100 scale, 0 no effect, 100 complete control; for Ryegrass, Italian plant response rating (0 to 100 scale): 500 g ai/ha Preemergence, approx. 10 days
Summary of the method: as §2

[14] = tested on: ragweed (common ragweed, Ambrosia elatior); assay: Test A preemergence, visual plant response rating; conditions: for Ragweed plant response rating: 125 g ai/ha, preemergence, 0 to 100 scale, 0 no effect, 100 complete control; for Ragweed plant response rating (0 to 100 scale): 500 g ai/ha Preemergence, approx. 10 days
Summary of the method: as §2

kochia (Kochia scoparia) [15] = assay: Test A preemergence, visual plant response rating; conditions: for Kochia plant response rating: 125 g ai/ha, preemergence, 0 to 100 scale, 0 no effect, 100 complete control; for Kochia plant response rating (0 to 100 scale): 500 g ai/ha Preemergence, approx. 10 days
Summary of the method: as §2

[16] = tested on: pigweed (Amaranthus retroflexus); assay: Test A preemergence, visual plant response rating; conditions: for Pigweed plant response rating: 125 g ai/ha, preemergence, 0 to 100 scale, 0 no effect, 100 complete control; for Pigweed plant response rating (0 to 100 scale): 500 g ai/ha Preemergence, approx. 10 days
Summary of the method: as §2

[17] = tested on: foxtail, giant (giant foxtail, Setaria faberii); assay: Test A preemergence, visual plant response rating; conditions: for Foxtail, Giant plant response rating: 125 g ai/ha, preemergence, 0 to 100 scale, 0 no effect, 100 complete control; for Foxtail, Giant plant response rating (0 to 100 scale): 500 g ai/ha Preemergence, approx. 10 days
Summary of the method: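 Greenhouse pot test in loam–sand soil mix: compound in a surfactant-containing non-phytotoxic solvent applied preemergence (directed soil spray) or postemergence (one- to two-leaf plants, 2–10 cm). Injury scored visually after ~10 days, 0–100.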

[18] = tested on: barnyardgrass (Echinochloa crus-galli); assay: Test A preemergence, visual plant response rating; conditions: for Barnyardgrass plant response rating: 125 g ai/ha, preemergence, 0 to 100 scale, 0 no effect, 100 complete control; for Barnyardgrass plant response rating (0 to 100 scale): 500 g ai/ha Preemergence, approx. 10 days
Summary of the method: as §2

SMILES: CO/N=C(\c1c(C)cccc1F)c1c(O)c(C)nn(C)c1=O [Compound 39]
- Plant response rating, Sedge, Umbrella (0 to 100 scale, 0 is no effect, 100 is complete control) [1]: 0
- Plant response rating, Ducksalad (0 to 100 scale, 0 is no effect, 100 is complete control) [2]: 0
- Plant response rating, Rice (0 to 100 scale, 0 is no effect, 100 is complete control) (rice (Oryza sativa)): 0
- Plant response rating, Barnyardgrass (0 to 100 scale, 0 is no effect, 100 is complete control) [3]: 0
- Ryegrass, Italian plant response rating (0 to 100 scale) [4]: 0
- Ryegrass, Italian plant response rating [4]: 0
- Ragweed plant response rating (0 to 100 scale) [5]: 60
- Ragweed plant response rating [5]: 0
- Kochia plant response rating (0 to 100 scale) (kochia (Kochia scoparia) [6]): 0
- Kochia plant response rating (kochia (Kochia scoparia) [6]): 0
- Galium plant response rating (0 to 100 scale) [7]: 70
- Galium plant response rating [7]: 40
- Pigweed plant response rating (0 to 100 scale) [8]: 10
- Pigweed plant response rating [8]: 0
- Wheat plant response rating (0 to 100 scale) [9]: 10
- Wheat plant response rating [9]: 0
- Foxtail, Giant plant response rating (0 to 100 scale) [10]: 0
- Foxtail, Giant plant response rating [10]: 0
- Barnyardgrass plant response rating (0 to 100 scale) [11]: 10
- Barnyardgrass plant response rating [11]: 0
- Corn plant response rating (0 to 100 scale) (corn (Zea mays)): 20
- Corn plant response rating (corn (Zea mays)): 0
- Blackgrass plant response rating (0 to 100 scale) [12]: 0
- Blackgrass plant response rating [12]: 0
- Ryegrass, Italian plant response rating [13]: 0
- Ryegrass, Italian plant response rating (0 to 100 scale) [13]: 0
- Ragweed plant response rating [14]: 0
- Ragweed plant response rating (0 to 100 scale) [14]: 30
- Kochia plant response rating (kochia (Kochia scoparia) [15]): 0
- Kochia plant response rating (0 to 100 scale) (kochia (Kochia scoparia) [15]): 0
- Pigweed plant response rating [16]: 0
- Pigweed plant response rating (0 to 100 scale) [16]: 0
- Foxtail, Giant plant response rating [17]: 0
- Foxtail, Giant plant response rating (0 to 100 scale) [17]: 0
- Barnyardgrass plant response rating [18]: 0
- Barnyardgrass plant response rating (0 to 100 scale) [18]: 0

SMILES: C#CCO/N=C(/c1c(O)c(C)nn(C)c1=O)c1cccc2ccccc12 [Compound 82, 5-hydroxy-2,6-dimethyl-4-[(E)-[(2-propyn-1-yloxy)imino]-1-naphthalenylmethyl]-3(2H)-pyridazinone]
- Plant response rating, Sedge, Umbrella (0 to 100 scale, 0 is no effect, 100 is complete control) [1]: 0
- Plant response rating, Ducksalad (0 to 100 scale, 0 is no effect, 100 is complete control) [2]: 0
- Plant response rating, Rice (0 to 100 scale, 0 is no effect, 100 is complete control) (rice (Oryza sativa)): 0
- Plant response rating, Barnyardgrass (0 to 100 scale, 0 is no effect, 100 is complete control) [3]: 0
- Ryegrass, Italian plant response rating (0 to 100 scale) [4]: 80
- Ryegrass, Italian plant response rating [4]: 80
- Ragweed plant response rating (0 to 100 scale) [5]: 100
- Ragweed plant response rating [5]: 90
- Kochia plant response rating (0 to 100 scale) (kochia (Kochia scoparia) [6]): 90
- Kochia plant response rating (kochia (Kochia scoparia) [6]): 80
- Galium plant response rating (0 to 100 scale) [7]: 100
- Galium plant response rating [7]: 90
- Pigweed plant response rating (0 to 100 scale) [8]: 90
- Pigweed plant response rating [8]: 70
- Wheat plant response rating (0 to 100 scale) [9]: 80
- Wheat plant response rating [9]: 50
- Foxtail, Giant plant response rating (0 to 100 scale) [10]: 80
- Foxtail, Giant plant response rating [10]: 70
- Barnyardgrass plant response rating (0 to 100 scale) [11]: 80
- Barnyardgrass plant response rating [11]: 50
- Corn plant response rating (0 to 100 scale) (corn (Zea mays)): 30
- Corn plant response rating (corn (Zea mays)): 0
- Blackgrass plant response rating (0 to 100 scale) [12]: 100
- Blackgrass plant response rating [12]: 90
- Ryegrass, Italian plant response rating [13]: 90
- Ryegrass, Italian plant response rating (0 to 100 scale) [13]: 100
- Ragweed plant response rating [14]: 90
- Ragweed plant response rating (0 to 100 scale) [14]: 100
- Kochia plant response rating (kochia (Kochia scoparia) [15]): 10
- Kochia plant response rating (0 to 100 scale) (kochia (Kochia scoparia) [15]): 80
- Pigweed plant response rating [16]: 100
- Pigweed plant response rating (0 to 100 scale) [16]: 100
- Foxtail, Giant plant response rating [17]: 100
- Foxtail, Giant plant response rating (0 to 100 scale) [17]: 100
- Barnyardgrass plant response rating [18]: 60
- Barnyardgrass plant response rating (0 to 100 scale) [18]: 100

SMILES: Cc1nn(C)c(=O)c(C(=NOCC=CCl)c2ccc(F)c3ccccc23)c1O [Compound 107]
- Plant response rating, Sedge, Umbrella (0 to 100 scale, 0 is no effect, 100 is complete control) [1]: 0
- Plant response rating, Ducksalad (0 to 100 scale, 0 is no effect, 100 is complete control) [2]: 0
- Plant response rating, Rice (0 to 100 scale, 0 is no effect, 100 is complete control) (rice (Oryza sativa)): 0
- Plant response rating, Barnyardgrass (0 to 100 scale, 0 is no effect, 100 is complete control) [3]: 0
- Ryegrass, Italian plant response rating (0 to 100 scale) [4]: 90
- Ryegrass, Italian plant response rating [4]: 70
- Ragweed plant response rating (0 to 100 scale) [5]: 90
- Ragweed plant response rating [5]: 80
- Kochia plant response rating (0 to 100 scale) (kochia (Kochia scoparia) [6]): 60
- Kochia plant response rating (kochia (Kochia scoparia) [6]): 30
- Galium plant response rating (0 to 100 scale) [7]: 90
- Galium plant response rating [7]: 70
- Pigweed plant response rating (0 to 100 scale) [8]: 100
- Pigweed plant response rating [8]: 80
- Wheat plant response rating (0 to 100 scale) [9]: 40
- Wheat plant response rating [9]: 0
- Foxtail, Giant plant response rating (0 to 100 scale) [10]: 80
- Foxtail, Giant plant response rating [10]: 70
- Barnyardgrass plant response rating (0 to 100 scale) [11]: 90
- Barnyardgrass plant response rating [11]: 80
- Corn plant response rating (0 to 100 scale) (corn (Zea mays)): 20
- Corn plant response rating (corn (Zea mays)): 0
- Blackgrass plant response rating (0 to 100 scale) [12]: 80
- Blackgrass plant response rating [12]: 80
- Ryegrass, Italian plant response rating [13]: 70
- Ryegrass, Italian plant response rating (0 to 100 scale) [13]: 90
- Ragweed plant response rating [14]: 20
- Ragweed plant response rating (0 to 100 scale) [14]: 80
- Kochia plant response rating (kochia (Kochia scoparia) [15]): 0
- Kochia plant response rating (0 to 100 scale) (kochia (Kochia scoparia) [15]): 30
- Pigweed plant response rating [16]: 60
- Pigweed plant response rating (0 to 100 scale) [16]: 80
- Foxtail, Giant plant response rating [17]: 80
- Foxtail, Giant plant response rating (0 to 100 scale) [17]: 100
- Barnyardgrass plant response rating [18]: 70
- Barnyardgrass plant response rating (0 to 100 scale) [18]: 90
